This note sets out measurements from US6927214B1 (Novo Nordisk A/S, priority 1999, dated 2005).

The EC50 is the concentration needed to bring the measured effect to its halfway point. For orientation: Emax means the size of the effect at its maximum, as opposed to the concentration needed. In general, melting point refers to the temperature of the solid-liquid transition.

For one series, the target named is T1, human glucagon receptor (Homo sapiens, UniProt P47871).
T1 construct: expressed in transfected cells
T1 sequence (P47871 26-477): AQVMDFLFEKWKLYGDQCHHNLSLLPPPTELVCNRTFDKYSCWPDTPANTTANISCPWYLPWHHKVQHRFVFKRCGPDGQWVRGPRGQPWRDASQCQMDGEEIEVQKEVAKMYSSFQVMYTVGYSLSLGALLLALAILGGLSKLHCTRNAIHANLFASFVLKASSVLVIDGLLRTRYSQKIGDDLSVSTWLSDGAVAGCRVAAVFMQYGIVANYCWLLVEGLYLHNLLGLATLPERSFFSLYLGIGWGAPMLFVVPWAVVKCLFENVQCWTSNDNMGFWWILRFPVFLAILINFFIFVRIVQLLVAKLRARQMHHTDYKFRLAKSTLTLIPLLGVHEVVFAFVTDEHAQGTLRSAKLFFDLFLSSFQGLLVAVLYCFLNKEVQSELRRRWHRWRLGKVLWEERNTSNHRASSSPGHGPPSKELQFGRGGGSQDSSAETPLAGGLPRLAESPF
The series is described as follows: Stimulation of cAMP formation in a cell line expressing the cloned human glucagon receptor. It counts as biochemical. The following applies: concentrations tested up to 100 μM.

Series [1] concerns the target T2, human GLP-1 receptor (Homo sapiens, UniProt P43220). Also noted: Emax: dose or concentration left out as unconfirmed.
The target of series [2] is T2, human GLP-1 receptor. Briefly: Saturation experiments with labelled GLP-1 tracer on plasma membranes, with or without example 2. It counts as binding. Also noted: expressed in transfected cells; host or cells: BHK (baby hamster kidney) cells; plasma membranes prepared from them. The note with it: 10 μM compound, saturation experiment.
Series [3] has as its target T2, human GLP-1 receptor. The series is described as follows: biochemical.

Read-outs that look alike come from different tables or passages of the source.

T2 sequence (P43220 24-463): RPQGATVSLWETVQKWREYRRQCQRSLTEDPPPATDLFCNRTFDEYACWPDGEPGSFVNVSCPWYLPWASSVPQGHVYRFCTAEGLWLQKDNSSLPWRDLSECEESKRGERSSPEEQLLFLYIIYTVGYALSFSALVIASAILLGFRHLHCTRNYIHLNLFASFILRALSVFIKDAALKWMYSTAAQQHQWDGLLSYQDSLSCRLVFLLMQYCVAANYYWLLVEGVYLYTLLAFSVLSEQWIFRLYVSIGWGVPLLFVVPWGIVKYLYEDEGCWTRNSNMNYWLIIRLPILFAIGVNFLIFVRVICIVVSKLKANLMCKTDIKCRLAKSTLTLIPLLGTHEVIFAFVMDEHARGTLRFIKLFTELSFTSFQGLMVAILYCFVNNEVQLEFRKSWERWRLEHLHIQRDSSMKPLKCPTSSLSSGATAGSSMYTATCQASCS

As to `Cc1nnc(Sc2nc3cc(Cl)c(Cl)cc3nc2C(F)(F)F)s1` [Example 2, 6,7-Dichloro-2-trifluoromethyl-3-(5-methyl-1,3,4-thiadiazol-2-ylsulfanyl)quinoxaline], the “agonist activity (cAMP formation)” value at human glucagon receptor is “no measurable activity”. Moreover, at human GLP-1 receptor [1], the response was half-maximal at 0.31 µM (EC50) and the Emax came to 100%. Also, the “effect on the affinity of the receptor for GLP-1” value on human GLP-1 receptor [2] was “changed the affinity of the receptor for GLP-1”.

At human GLP-1 receptor [1], `Cc1nnc([S+]([O-])c2nc3cc(Cl)c(Cl)cc3nc2C(C)C)s1` (stereo not shown) [Example 6, 6,7-Dichloro-2-isopropyl-3-(5-methyl-1,3,4-thiadiazol-2-ylsulfinyl)quinoxaline] registered an EC50 of 0.17 µM and an Emax of 94%.

On human GLP-1 receptor [1], `Cc1nnc(S(=O)(=O)c2nc3cc(Cl)c(Cl)cc3nc2C(C)C)s1` [Example 7, 6,7-Dichloro-2-isopropyl-3-(5-methyl-1,3,4-thiadiazol-2-ylsulfonyl)quinoxaline] displayed an EC50 of 0.078 µM and an Emax of 120%.

At human GLP-1 receptor [1], `CS(=O)(=O)c1nc2cc(Cl)c(Cl)cc2nc1C(F)(F)F` [Example 19, 6,7-Dichloro-2-methanesulfonyl-3-trifluoromethylquinoxaline] came in with a concentration for a half-maximal effect (EC50) of 0.16 µM and an Emax of 120%.

On human GLP-1 receptor [1], `CC(C)S(=O)(=O)c1nc2cc(Cl)c(Cl)cc2nc1C(F)(F)F` [Example 20, 6,7-Dichloro-2-trifluoromethyl-3-isopropylsulfonylquinoxaline] gave an EC50 of 0.068 µM and an Emax of 140%.

Turning to `O=Cc1cc2cc(Cl)ccc2nc1Cl` [Example 25, 2,6-Dichloroquinoline-3-carbaldehyde], the Emax at human GLP-1 receptor [1] is 15%.

On to `CSc1nc2ccc(Cl)cc2cc1C=O` [Example 29, 6-Chloro-2-methylsulfanylquinoline-3-carbaldehyde], for which the Emax on human GLP-1 receptor [1] was 13%.

On to `Cc1nc2cc(Cl)ccc2nc1Cl` [Example 46, 2,6-Dichloro-3-methylquinoxaline], for which, at human GLP-1 receptor [1], the EC50 was above 33 µM and the Emax stood at 0%.

At human GLP-1 receptor [1], `COc1nc2ccc(Cl)cc2nc1Cl` [Example 47, 2,7-Dichloro-3-methoxyquinoxaline] registered an EC50 of 10 µM and an Emax of 50%.

As to `Cc1nc2cc(Cl)c(Cl)cc2nc1S(C)(=O)=O` [Example 56, 6,7-Dichloro-3-methyl-2-(methylsulfonyl)quinoxaline], at human GLP-1 receptor [1], the EC50 was determined as 0.078 µM and the maximum response (Emax) worked out at 130%.

On human GLP-1 receptor [3], `CC(C)c1nc2cc(Cl)c(Cl)cc2nc1S(=O)(=O)c1cncn1C` [Example 65, 6,7-Dichloro-2-isopropyl-3-(1-methyl-1H-imidazol-5-ylsulfonyl)quinoxaline] showed an EC50 of 0.65 µM and an Emax of 53%.

At human GLP-1 receptor [3], `CCCc1nc2cc(Cl)c(Cl)cc2nc1S(C)(=O)=O` [Example 92, 6,7-Dichloro-2-(methylsulfonyl)-3-propylquinoxaline] came in with an EC50 of 0.77 µM and an Emax of 53%.

`CC(C)(C)Nc1nc2cc(Cl)c(Cl)cc2nc1S(C)(=O)=O` [Example 103, N-[6,7-Dichloro-3-(methylsulfonyl)-2-quinoxalinyl]N-tert-butylamine]: at human GLP-1 receptor [3], the EC50 was 0.05 µM and the Emax turned out to be 80%.

On human GLP-1 receptor [3], `CS(=O)(=O)c1nc2cc(Cl)c(Cl)cc2nc1NC1CCCc2ccccc21` (stereo not shown) [Example 108, N-[6,7-Dichloro-3-(methylsulfonyl)-2-quinoxalinyl]-N-(1,2,3,4-tetrahydro-naphthalene-1-yl)amine] showed a half-maximal effective concentration (EC50) of 0.68 µM and an Emax of 54%.

Turning to `CCC(C)(C)Nc1nc2cc(Cl)c(Cl)cc2nc1S(C)(=O)=O` [Example 135, (6,7-Dichloro-3-(methylsulfonyl)═quinoxalin-2-yl)tert-pentylamine], at human GLP-1 receptor [3], the midpoint of the response, the EC50, lay at 0.29 µM and the Emax worked out at 76%.

At human GLP-1 receptor [3], `CC(C)Nc1nc2cc(Cl)c(Cl)cc2nc1S(=O)(=O)Cc1ccc(OC(F)F)cc1` [Example 136, (6,7-Dichloro-3-{[4-(difluoromethoxy)benzyl]sulfonyl}quinoxalin-2-yl)isopropylamine] gave a concentration for a half-maximal effect (EC50) of 0.82 µM and an Emax of 64%.

Consider `CC(C)Sc1nc2cc(Cl)c(Cl)cc2nc1S(C)(=O)=O` [Example 137, 6,7-Dichloro-2-(isopropylsulfanyl)-3-(methylsulfonyl)quinoxaline], for which, at human GLP-1 receptor [3], the EC50 came to 0.66 µM and the Emax is 46%.

On human GLP-1 receptor [3], `Cn1ccnc1S(=O)(=O)c1nc2cc(Cl)c(Cl)cc2nc1NC(C)(C)C` [Example 138, (6,7-Dichloro-3-[(1-methyl-1H-imidazol-2-yl)sulfonyl]quinoxalin-2-yl)-tert-butylamine] came in with an EC50 of 0.54 µM and an Emax of 72%.

The compound `O=[N+]([O-])c1cc2nc(-c3ccccc3)c(C(F)(F)F)nc2cc1[N+](=O)[O-]` [Example 145, 6,7-Dinitro-2-phenyl-3-trifluoromethylquinoxaline] came in with a maximal effect (Emax) at 0.33 µM on human GLP-1 receptor [3] of 36%.

For `O=[N+]([O-])c1cc2ncc(-c3ccc(C(F)(F)F)cc3)nc2cc1[N+](=O)[O-]` [Example 147, 6,7-Dinitro-2-(4-trifluoromethylphenyl)quinoxaline], at human GLP-1 receptor [3], the Emax at 1 µM stood at 31%.

Regarding `FC(F)(F)c1nc2cc(Cl)c(Cl)cc2nc1Sc1nccs1` [Example 156, 6,7-Dichloro-2-(thiazol-2-ylsulfanyl)-3-trifluoromethyl-quinoxaline], on human GLP-1 receptor [3], the maximal response (Emax) at 0.01 µM stood at 42%.

At human GLP-1 receptor [3], `O=C(c1ccccc1)c1ccc2nc(Br)c(C(F)(F)F)nc2c1` [Example 157, (2-Bromo-3-trifluoromethyl-quinoxalin-6-yl)phenyl Methanone] registered an Emax at 3.3 µM of 15%.

Take `Cc1nnc(Sc2nc3ccc(C(=O)c4ccccc4)cc3nc2C(F)(F)F)s1` [Example 158, [2-(5-Methyl-[1,3,4]thiadiazol-2-ylsulfanyl)-3-trifluorophenylquinoxalin-6-yl]phenyl Methanone]: the melting point lay within 160 to 162 °C.

`CC(C)CCS(=O)(=O)c1nc2cc(Cl)ccc2nc1C(F)(F)F` [Example 169, 6-Chloro-3-(3-methylbutylsulfonyl)-2-trifluoromethyl-quinoxaline] came in with a maximum response (Emax) at 1 µM at human GLP-1 receptor [3] of 19%.

In the case of `CC(C)CCS(=O)(=O)c1nc2ccc(Cl)cc2nc1C(F)(F)F` [Example 170, 6-Chloro-2-(3-methylbutyl-1-sulfonyl)-3-trifluoromethyl-quinoxaline], the Emax at 1 µM on human GLP-1 receptor [3] worked out at 33%.
